# Experimental data reported in patent US20110256115A1, “HYDROSOLUBLE [6)O-ALPHA-D-GLCP-(1->]N-6-O-BETA-D-GLCP-(1->-PHENOLIC DERIVATIVES WITH DERMOCOSMETIC, NUTRITIONAL AND THERAPEUTIC APPLICATIONS, AND COMPOSITIONS CONTAINING SAID WATER SOLUBLE COMPOUNDS” (Libragen, priority 2008, published 2011).
# Several values for one entry are separate records, joined by “and”; a condition that tells them apart may be missing. Equal entries are not always repeated.
# Experiment: Compared solubility in water
# Type: physicochemical
# Details: for % of solubility increase = (A − B)/B × 100: versus corresponding O-β-D-Glcp-(1→-phenolic compound); for A = solubility in water of [6)-O-α-D-Glcp-(1→]1-6-O-β-D-Glcp-(1→-phenolic compound / B = solubility in water of O-β-D-Glcp-(1→-phenolic compound) / solubility: pH 4.0 to 5.0, no buffer added, 25° C.; for A = solubility in water of [6)-O-α-D-Glcp-(1→]1-6-O-β-D-Glcp-(1→-phenolic compound: minimal solubility from concentrated syrup; for B = solubility in water of O-β-D-Glcp-(1→-phenolic compound) / solubility: water saturated solution; for solubility: thermodynamic from solid, read-out: B = solubility in water of O-β-D-Glcp-(1→-phenolic compound)
# Description: The phenolic compounds derivatives of the present invention have an improved solubility in water of at least 50% to 5000% as compared to the corresponding 0-β-D-Glcp-(14)-phenolic compound in the same physiological conditions, more preferably at least 50%, 100%, 200%, 400%, 800%, 1000%, 2000%, 3000%, 4000% or 5000%. Solubility of a phenolic compound derivative can be estimated by preparing a saturated water solution of said phenolic compound derivative. Excess solid form of phenolic compound derivative is eliminated by high speed centrifugation and concentration of compound A in the supernatant is estimated by HPLC using appropriate references (see above §‘Prepation of derivative’ for HPLC conditions example). Solubility difference is calculated with formula: […]
# For this purpose, these [6)-O-α-D-Glcp-(1→]n-6-O-β-D-Glcp-(1→-phenolic derivatives have been prepared as described in example 1, and concentrated as described in EP2007/055815. The resulting concentrated syrup obtained after purification of these [6)-O-α-D-Glcp-(1→]1-6-O-β-D-Glcp-(1→-phenolic derivatives has been diluted and analyzed by HPLC to estimate the content of soluble [6)-O-α-D-Glcp-(1→]1-6-O-β-D-Glcp-(1→-phenolic derivatives.
# In parallel, an excess amount of each corresponding β-D-Glcp-(1→-phenolic derivatives has been diluted in water to enable the preparation of water saturated solutions of these compounds. After high speed centrifugation to remove the excess of solid material, the supernatant of these saturated solutions has been analyzed by HPLC to estimate the content of soluble O-β-D-Glcp-(1→-phenolic derivatives.
# Nota: One should notice that solubility of the [6)-O-α-D-Glcp-(1→]1-6-O-(3-D-Glcp-(1→-phenolic derivatives is considered as a minimal solubility as concentration of the initial syrups have not been tested.
Compound,% of solubility increase = (A − B)/B × 100 (In g/L),% of solubility increase = (A − B)/B × 100 (In mM),A = solubility in water of [6)-O-α-D-Glcp-(1→]1-6-O-β-D-Glcp-(1→-phenolic compound,solubility,B = solubility in water of O-β-D-Glcp-(1→-phenolic compound)
O=c1ccc2cc(O[C@@H]3O[C@H](CO[C@H]4O[C@H](CO)[C@@H](O)[C@H](O)[C@H]4O)[C@@H](O)[C@H](O)[C@H]3O)c(O)cc2o1 [[6)-O-α-D-Glcp-(1→]1-6-O^6-β-D-Glcp-(1→-esculetin],Higher than 850%,Higher than 550%,> 12.5 g/L and > 24.9 mM,–,–
"Esculetin-6-O-β-D-glucopyranoside [Esculin, reference compound]",–,–,–,–,1.3 g/L and 3.8 mM
"O=C(CCc1ccc(O)cc1)c1c(O)cc(O)cc1O[C@@H]1O[C@H](CO)[C@@H](O)[C@H](O)[C@H]1O [Phloridzin, Phloretin-2′-O-β-D-glucopyranoside, reference compound]",–,–,–,1100 µg/mL and 2500 µM,–
"COc1ccc(/C=C/c2cc(O)cc(O[C@@H]3O[C@H](CO)[C@@H](O)[C@H](O)[C@H]3O)c2)cc1 [Deoxyrhapontin, 3,5-dihydroxy-4′-methoxystilbene-3-O-β-D-glucopyranoside, reference compound]",–,–,–,–,0.3 g/L and 0.7 mM
"OC[C@H]1O[C@@H](Oc2cc(O)cc(C=Cc3ccc(O)cc3)c2)[C@H](O)[C@@H](O)[C@@H]1O [O-β-D-Glcp-(1→-resveratrol, Resveratrol-3-O-β-D-glucopyranoside, reference compound]",–,–,–,1200 µg/mL and 3100 µM,–

# The next lines start with results.
% of solubility increase = (A − B)/B × 100 (In g/L),% of solubility increase = (A − B)/B × 100 (In mM),A = solubility in water of [6)-O-α-D-Glcp-(1→]1-6-O-β-D-Glcp-(1→-phenolic compound,solubility,Compound,B = solubility in water of O-β-D-Glcp-(1→-phenolic compound)
Higher than 5300%,Higher than 3650%,> 65.0 g/L and > 117.6 mM,–,OC[C@H]1O[C@H](OC[C@H]2O[C@@H](Oc3cc(O)cc(/C=C/c4ccc(O)cc4)c3)[C@H](O)[C@@H](O)[C@@H]2O)[C@H](O)[C@@H](O)[C@@H]1O [[6)-O-α-D-Glcp-(1→]1-6-O^3-β-D-Glcp-(1→-resveratrol],–
Higher than 5400%,Higher than 3950%,> 16.6 g/L and > 28.5 mM,–,"COc1ccc(C=Cc2cc(O)cc(O[C@@H]3O[C@H](CO[C@H]4O[C@H](CO)[C@@H](O)[C@H](O)[C@H]4O)[C@@H](O)[C@H](O)[C@H]3O)c2)cc1O [[6)-O-α-D-Glcp-(1→]1-6-O^3-β-D-Glcp-(1→-4′-methoxy-3,3′,5-stilbenetriol]",–
–,–,–,300 µg/mL and 700 µM,"COc1ccc(C=Cc2cc(O)cc(O[C@@H]3O[C@H](CO)[C@@H](O)[C@H](O)[C@H]3O)c2)cc1O [Rhapontin, 4′-methoxy-3,3′,5-stilbenetriol-3-O-β-D-glucopyranoside, reference compound]",–
Higher than 4750%,Higher than 3450%,> 53.3 g/L and > 89.1 mM,–,O=C(CCc1ccc(O)cc1)c1c(O)cc(O)cc1O[C@@H]1O[C@H](CO[C@H]2O[C@H](CO)[C@@H](O)[C@H](O)[C@H]2O)[C@@H](O)[C@H](O)[C@H]1O [[6)-O-α-D-Glcp-(1→]1-6-O^2′-β-D-Glcp-(1→-phloretin],–
Higher than 2700%,Higher than 2000%,> 8.5 g/L and > 15.0 mM,–,"COc1ccc(C=Cc2cc(O)cc(O[C@@H]3O[C@H](CO[C@H]4O[C@H](CO)[C@@H](O)[C@H](O)[C@H]4O)[C@@H](O)[C@H](O)[C@H]3O)c2)cc1 [[6)-O-α-D-Glcp-(1→]1-6-O^3-β-D-Glcp-(1→-3,5-dihydroxy-4′-methoxystilbene]",–
